{"source": "patent US20230160007A1", "about": "“KIT FOR EVALUATING SENSITIVITY OF PATIENT TO MET INHIBITOR” (Beijing Neurosurgical Institute, priority 2020, published 2023)", "format_in_all_cases": "cell-based, human", "key": {"[1]": {"test_system": "glioblastoma PDC sample A", "test": "CCK-8 viable count of glioblastoma PDC sample A after drug treatment", "conditions": "for Living cell proportion (a value relative to CCK8): PDC sample A, 72 h", "method": "(§1) Enzymolysis was separately carried out on the four collected glioblastoma samples to obtain glioblastoma PDC samples A, B, C and D.\n(§2) The glioblastoma PDC samples A, B, C and D were taken, re-suspended by using a special culture medium, and then respectively inoculated into a 96-well cell culture plate, so that each culture well contained 3000 cells. After inoculation was completed, the 96-well cell culture plate was placed in an incubator containing 5% CO2 at 37° C., and incubation was performed for 24 h. […] After the drug was added, the incubation was continued to be performed for 72 h, then the viable count in each culture well was measured by using CCK-8, and the results are shown in Table 1, Table 2, FIG. 11 and FIG. 12."}, "[2]": {"test_system": "glioblastoma PDC sample B", "test": "CCK-8 viable count of glioblastoma PDC sample B after drug treatment", "conditions": "for Living cell proportion (a value relative to CCK8): PDC sample B, 72 h", "method": "as §1\n(§3) The glioblastoma PDC samples A, B, C and D were taken, re-suspended by using a special culture medium, and then respectively inoculated into a 96-well cell culture plate, so that each culture well contained 3000 cells. After inoculation was completed, the 96-well cell culture plate was placed in an incubator containing 5% CO2 at 37° C., and incubation was performed for 24 h."}, "[3]": {"test_system": "glioblastoma PDC sample C", "test": "CCK-8 viable count of glioblastoma PDC sample C after drug treatment", "conditions": "for Living cell proportion (a value relative to CCK8): 72 h", "method": "as §1, §3"}, "[4]": {"test_system": "glioblastoma PDC sample D", "test": "CCK-8 viable count of glioblastoma PDC sample D after drug treatment", "conditions": "for Living cell proportion (a value relative to CCK8): 72 h", "method": "as §1, §2"}}}
{"smiles": "Cn1nnc2c(C(N)=O)ncn2c1=O", "note": "[TMZ, temozolomide]", "values": [{"measurement": "Living cell proportion (a value relative to CCK8)", "setting": "[1]; TMZ 50 μM", "result": 0.8481}, {"measurement": "Living cell proportion (a value relative to CCK8)", "setting": "[1]; TMZ 100 μM", "result": 0.8696}, {"measurement": "Living cell proportion (a value relative to CCK8)", "setting": "[1]; TMZ 150 μM", "result": 0.7968}, {"measurement": "Living cell proportion (a value relative to CCK8)", "setting": "[1]; TMZ 200 μM", "result": 0.7843}, {"measurement": "Living cell proportion (a value relative to CCK8)", "setting": "[1]; TMZ 300 μM", "result": 0.7824}, {"measurement": "Living cell proportion (a value relative to CCK8)", "setting": "[1]; TMZ 400 μM", "result": 0.6482}, {"measurement": "Living cell proportion (a value relative to CCK8)", "setting": "[1]; TMZ 600 μM", "result": 0.5261}, {"measurement": "Living cell proportion (a value relative to CCK8)", "setting": "[1]; TMZ 800 μM", "result": 0.4052}, {"measurement": "Living cell proportion (a value relative to CCK8)", "setting": "[1]; TMZ 1000 μM", "result": 0.2577}, {"measurement": "Living cell proportion (a value relative to CCK8)", "setting": "[2]; TMZ 50 μM", "result": 0.8549}, {"measurement": "Living cell proportion (a value relative to CCK8)", "setting": "[2]; TMZ 100 μM", "result": 0.8905}, {"measurement": "Living cell proportion (a value relative to CCK8)", "setting": "[2]; TMZ 150 μM", "result": 0.9369}, {"measurement": "Living cell proportion (a value relative to CCK8)", "setting": "[2]; TMZ 200 μM", "result": 0.8763}, {"measurement": "Living cell proportion (a value relative to CCK8)", "setting": "[2]; TMZ 300 μM", "result": 0.724}, {"measurement": "Living cell proportion (a value relative to CCK8)", "setting": "[2]; TMZ 400 μM", "result": 0.7183}, {"measurement": "Living cell proportion (a value relative to CCK8)", "setting": "[2]; TMZ 600 μM", "result": 0.5489}, {"measurement": "Living cell proportion (a value relative to CCK8)", "setting": "[2]; TMZ 800 μM", "result": 0.345}, {"measurement": "Living cell proportion (a value relative to CCK8)", "setting": "[2]; TMZ 1000 μM", "result": 0.3175}, {"measurement": "Living cell proportion (a value relative to CCK8)", "setting": "[3]; TMZ 50 μM", "result": 0.6188}, {"measurement": "Living cell proportion (a value relative to CCK8)", "setting": "[3]; TMZ 100 μM", "result": 0.5841}, {"measurement": "Living cell proportion (a value relative to CCK8)", "setting": "[3]; TMZ 150 μM", "result": 0.4536}, {"measurement": "Living cell proportion (a value relative to CCK8)", "setting": "[3]; TMZ 200 μM", "result": 0.4768}, {"measurement": "Living cell proportion (a value relative to CCK8)", "setting": "[3]; TMZ 300 μM", "result": 0.4315}, {"measurement": "Living cell proportion (a value relative to CCK8)", "setting": "[3]; TMZ 400 μM", "result": 0.3164}, {"measurement": "Living cell proportion (a value relative to CCK8)", "setting": "[3]; TMZ 600 μM", "result": 0.2817}, {"measurement": "Living cell proportion (a value relative to CCK8)", "setting": "[3]; TMZ 800 μM", "result": 0.2834}, {"measurement": "Living cell proportion (a value relative to CCK8)", "setting": "[3]; TMZ 1000 μM", "result": 0.3585}, {"measurement": "Living cell proportion (a value relative to CCK8)", "setting": "[4]; TMZ 50 μM", "result": 0.7828}, {"measurement": "Living cell proportion (a value relative to CCK8)", "setting": "[4]; TMZ 100 μM", "result": 0.647}, {"measurement": "Living cell proportion (a value relative to CCK8)", "setting": "[4]; TMZ 150 μM", "result": 0.5799}, {"measurement": "Living cell proportion (a value relative to CCK8)", "setting": "[4]; TMZ 200 μM", "result": 0.5468}, {"measurement": "Living cell proportion (a value relative to CCK8)", "setting": "[4]; TMZ 300 μM", "result": 0.4681}, {"measurement": "Living cell proportion (a value relative to CCK8)", "setting": "[4]; TMZ 400 μM", "result": 0.3984}, {"measurement": "Living cell proportion (a value relative to CCK8)", "setting": "[4]; TMZ 600 μM", "result": 0.3435}, {"measurement": "Living cell proportion (a value relative to CCK8)", "setting": "[4]; TMZ 800 μM", "result": 0.2684}, {"measurement": "Living cell proportion (a value relative to CCK8)", "setting": "[4]; TMZ 1000 μM", "result": 0.2529}]}
{"smiles": "C[C@@H](Oc1cc(-c2cnn(C3CCNCC3)c2)cnc1N)c1c(Cl)ccc(F)c1Cl", "note": "[crizotinib]", "values": [{"measurement": "sensitivity of the glioblastoma PDC sample to the drug", "setting": "[1]; PDC sample A (MET exon 10 and exon 19 deleted), in words", "result": "sensitive"}, {"measurement": "Living cell proportion (a value relative to CCK8)", "setting": "[1]; crizotinib 0.5 μM", "result": 0.824}, {"measurement": "Living cell proportion (a value relative to CCK8)", "setting": "[1]; crizotinib 1 μM", "result": 0.5684}, {"measurement": "Living cell proportion (a value relative to CCK8)", "setting": "[1]; crizotinib 1.5 μM", "result": 0.4624}, {"measurement": "Living cell proportion (a value relative to CCK8)", "setting": "[1]; crizotinib 2 μM", "result": 0.3834}, {"measurement": "Living cell proportion (a value relative to CCK8)", "setting": "[1]; crizotinib 3 μM", "result": 0.3316}, {"measurement": "Living cell proportion (a value relative to CCK8)", "setting": "[1]; crizotinib 6 μM", "result": 0.2663}, {"measurement": "Living cell proportion (a value relative to CCK8)", "setting": "[1]; crizotinib 9 μM", "result": 0.2482}, {"measurement": "Living cell proportion (a value relative to CCK8)", "setting": "[1]; crizotinib 12 μM", "result": 0.2387}, {"measurement": "Living cell proportion (a value relative to CCK8)", "setting": "[1]; crizotinib 15 μM", "result": 0.2518}, {"measurement": "sensitivity of the glioblastoma PDC sample to the drug", "setting": "[2]; PDC sample B (MET exon 10 deleted), in words", "result": "sensitive"}, {"measurement": "Living cell proportion (a value relative to CCK8)", "setting": "[2]; crizotinib 0.5 μM", "result": 0.9128}, {"measurement": "Living cell proportion (a value relative to CCK8)", "setting": "[2]; crizotinib 1 μM", "result": 0.7978}, {"measurement": "Living cell proportion (a value relative to CCK8)", "setting": "[2]; crizotinib 1.5 μM", "result": 0.7125}, {"measurement": "Living cell proportion (a value relative to CCK8)", "setting": "[2]; crizotinib 6 μM", "result": 0.3689}, {"measurement": "Living cell proportion (a value relative to CCK8)", "setting": "[2]; crizotinib 9 μM", "result": 0.3059}, {"measurement": "Living cell proportion (a value relative to CCK8)", "setting": "[2]; crizotinib 12 μM", "result": 0.2806}, {"measurement": "Living cell proportion (a value relative to CCK8)", "setting": "[2]; crizotinib 15 μM", "result": 0.2769}, {"measurement": "Living cell proportion (a value relative to CCK8)", "setting": "[3]; crizotinib 0.5 μM", "result": 0.9496}, {"measurement": "Living cell proportion (a value relative to CCK8)", "setting": "[3]; crizotinib 1 μM", "result": 0.8619}, {"measurement": "Living cell proportion (a value relative to CCK8)", "setting": "[3]; crizotinib 2 μM", "result": 0.8082}, {"measurement": "Living cell proportion (a value relative to CCK8)", "setting": "[3]; crizotinib 6 μM", "result": 0.6643}, {"measurement": "Living cell proportion (a value relative to CCK8)", "setting": "[3]; crizotinib 9 μM", "result": 0.4383}, {"measurement": "Living cell proportion (a value relative to CCK8)", "setting": "[3]; crizotinib 12 μM", "result": 0.4003}, {"measurement": "Living cell proportion (a value relative to CCK8)", "setting": "[3]; crizotinib 15 μM", "result": 0.3824}, {"measurement": "sensitivity of the glioblastoma PDC sample to the drug", "setting": "[3]; in words", "result": "sensitive"}, {"measurement": "Living cell proportion (a value relative to CCK8)", "setting": "[4]; crizotinib 0.5 μM", "result": 0.9247}, {"measurement": "Living cell proportion (a value relative to CCK8)", "setting": "[4]; crizotinib 1 μM", "result": 0.8162}, {"measurement": "Living cell proportion (a value relative to CCK8)", "setting": "[4]; crizotinib 1.5 μM", "result": 0.7327}, {"measurement": "Living cell proportion (a value relative to CCK8)", "setting": "[4]; crizotinib 2 μM", "result": 0.6986}, {"measurement": "Living cell proportion (a value relative to CCK8)", "setting": "[4]; crizotinib 3 μM", "result": 0.7544}, {"measurement": "Living cell proportion (a value relative to CCK8)", "setting": "[4]; crizotinib 6 μM", "result": 0.5995}, {"measurement": "Living cell proportion (a value relative to CCK8)", "setting": "[4]; crizotinib 9 μM", "result": 0.4381}, {"measurement": "Living cell proportion (a value relative to CCK8)", "setting": "[4]; crizotinib 12 μM", "result": 0.3812}, {"measurement": "Living cell proportion (a value relative to CCK8)", "setting": "[4]; crizotinib 15 μM", "result": 0.4752}, {"measurement": "sensitivity of the glioblastoma PDC sample to the drug", "setting": "[4]; in words", "result": "sensitive"}]}
